Test results as given in ChEMBL document CHEMBL1201862, “PubChem BioAssay data set” (2004).
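96-well plates; 48 h exposure; 5 concentrations. Endpoints by linear interpolation between flanking doses. Not reached: highest tested concentration assigned. At the GI50, growth is halved.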 Active and inactive are the calls of the source. Rule as the data show it: active = GI50 up to about 1.1 µM and inactive = higher.

Legend:
Assay in all cases: DTP human tumour cell line panel, 48 h
NCI-H460 = system: NCI-H460
NCI-H522 = system: NCI-H522
CAKI-1 = system: CAKI-1
TK-10 = system: TK-10
HCT-116 = system: HCT-116
SN12C = system: SN12C
SK-MEL-28 = system: SK-MEL-28
HOP-62 = system: HOP-62
IGROV-1 = system: IGROV-1
UACC-62 = system: UACC-62
LXFL 529 = system: LXFL 529
Malme-3M = system: Malme-3M
OVCAR-4 = system: OVCAR-4
DMS-273 = system: DMS-273
KM-20L2 = system: KM-20L2
OVCAR-3 = system: OVCAR-3
A498 = system: A498
HCT-15 = system: HCT-15
HOP-92 = system: HOP-92
NCI-H23 = system: NCI-H23
SK-MEL-5 = system: SK-MEL-5
RXF 393 = system: RXF 393
UO-31 = system: UO-31
HL-60 = system: HL-60
EKVX = system: EKVX
RXF 631 = system: RXF 631
A549 = system: A549
SR = system: SR
786-0 = system: 786-0
DLD-1 = system: DLD-1
UACC-257 = system: UACC-257
MOLT-4 = system: MOLT-4
SF-539 = system: SF-539
COLO 205 = system: COLO 205
HOP-18 = system: HOP-18
SK-OV-3 = system: SK-OV-3
ACHN = system: ACHN
RPMI-8226 = system: RPMI-8226
SK-MEL-2 = system: SK-MEL-2
XF498 = system: XF498
OVCAR-8 = system: OVCAR-8
M14 = system: M14
KM12 = system: KM12
OVCAR-5 = system: OVCAR-5
CCRF-CEM = system: CCRF-CEM
SNB-78 = system: SNB-78
SNB-75 = system: SNB-75
DMS-114 = system: DMS-114
HCC 2998 = system: HCC 2998
SF-268 = system: SF-268
M19-MEL = system: M19-MEL
SF-295 = system: SF-295
NCI-H226 = system: NCI-H226
K562 = system: K562
SNB-19 = system: SNB-19
SW-620 = system: SW-620
U-251 = system: U-251
HT-29 = system: HT-29
LOX IMVI = system: LOX IMVI

For `CCCCC1(OC(=O)CCC(=O)O)CCC2(CCC(C)C(C/C=C(C)/C=C/C(O)C(C)/C=C/C(=O)O)O2)OC1CC/C(C)=C/C(=O)O` (centres undefined), the GI50 (NCI-H460) was 6.18 µM (inactive), the GI50 (NCI-H522) was 2.77 µM (inactive) and the GI50 (CAKI-1) was 4.14 µM (inactive). For the same compound, the GI50 (TK-10) was 17 µM (inactive), the GI50 (HCT-116) was 6.19 µM (inactive) and the GI50 (SN12C) was 2.77 µM (inactive). The GI50 (SK-MEL-28) was 2.02 µM (inactive), the GI50 (HOP-62) was 2.09 µM (inactive) and the GI50 (IGROV-1) was 1.47 µM (inactive). The GI50 (UACC-62) was 0.971 µM (active), the GI50 (LXFL 529) was 1.8 µM (inactive) and the GI50 (Malme-3M) was 7.73 µM (inactive). For the same compound, the GI50 (OVCAR-4) was 2.1 µM (inactive), the GI50 (DMS-273) was 5.94 µM (inactive) and the GI50 (KM-20L2) was 10.9 µM (inactive). The GI50 (OVCAR-3) was 2.64 µM (inactive), the GI50 (A498) was 3.26 µM (inactive) and the GI50 (HCT-15) was 3.45 µM. The GI50 (HOP-92) was 1.67 µM (inactive), the GI50 (NCI-H23) was 0.535 µM (active) and the GI50 (SK-MEL-5) was 1.61 µM (inactive). For the same compound, the GI50 (RXF 393) was 1.75 µM (inactive), the GI50 (UO-31) was 2.97 µM (inactive) and the GI50 (HL-60) was 4.57 µM (inactive). For the same compound, the GI50 (EKVX) was 5.2 µM (inactive), the GI50 (RXF 631) was 1.93 µM (inactive) and the GI50 (A549) was 12.2 µM (inactive). For the same compound, the GI50 (SR) was 3.04 µM (inactive), the GI50 (786-0) was 3.52 µM (inactive) and the GI50 (DLD-1) was 3.25 µM (inactive). The GI50 (UACC-257) was 1.55 µM (inactive), the GI50 (MOLT-4) was 5.02 µM (inactive) and the GI50 (SF-539) was 1.77 µM (inactive). For the same compound, the GI50 (COLO 205) was 16.6 µM (inactive), the GI50 (HOP-18) was 4.58 µM (inactive) and the GI50 (SK-OV-3) was 6.17 µM (inactive). The GI50 (ACHN) was 5.74 µM (inactive), the GI50 (RPMI-8226) was 3.15 µM (inactive) and the GI50 (SK-MEL-2) was 1.71 µM (inactive). The GI50 (XF498) was 2.03 µM (inactive), the GI50 (OVCAR-8) was 2.84 µM (inactive) and the GI50 (M14) was 1.92 µM (inactive). The GI50 (KM12) was 3.1 µM (inactive), the GI50 (OVCAR-5) was 3.94 µM (inactive) and the GI50 (CCRF-CEM) was 3.94 µM (inactive). For the same compound, the GI50 (SNB-78) was 2.55 µM (inactive), the GI50 (SNB-75) was 2.31 µM (inactive) and the GI50 (DMS-114) was 2.45 µM (inactive). For the same compound, the GI50 (HCC 2998) was 3.33 µM (inactive), the GI50 (SF-268) was 2.51 µM (inactive) and the GI50 (M19-MEL) was 2.84 µM (inactive). The GI50 (SF-295) was 4.57 µM (inactive), the GI50 (NCI-H226) was 2.14 µM (inactive) and the GI50 (K562) was 2.8 µM (inactive). The GI50 (SNB-19) was 3.11 µM (inactive), the GI50 (SW-620) was 8.3 µM (inactive) and the GI50 (U-251) was 4.35 µM (inactive). The GI50 (HT-29) was 10.3 µM (inactive) and the GI50 (LOX IMVI) was 1.66 µM (inactive).
